Reference: the NIST ThermoML archive (doi:10.1021/je4003515)
± gives the expanded uncertainty stated by the source.

Experiments:
[1] = mn = molality of the nth substance listed, in mol/kg; conditions: 101 kPa, Liquid; for viscosity: Capillary tube (Ostwald / Ubbelohde) method; for mass density: Vibrating tube method
[2] = refractive index (Na D-line) (dimensionless); mn = molality of the nth substance listed, in mol/kg; conditions: 298.15 K, 101 kPa, Liquid, Standard Abbe refractometry

CCO [ethanol] + O
[1]
Conditions	mass density, 293.15 K [kg/m3]	mass density, 298.15 K [kg/m3]	mass density, 303.15 K [kg/m3]	mass density, 308.15 K [kg/m3]	mass density, 313.15 K [kg/m3]	viscosity, 293.15 K [mPa·s]	viscosity, 298.15 K [mPa·s]	viscosity, 303.15 K [mPa·s]	viscosity, 308.15 K [mPa·s]	viscosity, 313.15 K [mPa·s]
m1 = 14	936.706 ± 1	933.024 ± 1	929.265 ± 1	925.437 ± 1	921.529 ± 1	2.895 ± 0.02	2.35 ± 0.017	1.97 ± 0.014	1.673 ± 0.013	1.44 ± 0.011
m1 = 16	930.583 ± 1	926.799 ± 1	922.942 ± 1	919.015 ± 1	915.018 ± 1	2.9 ± 0.02	2.363 ± 0.017	1.988 ± 0.015	1.69 ± 0.013	1.456 ± 0.012
m1 = 18	924.182 ± 1	920.298 ± 1	916.351 ± 1	912.337 ± 1	908.255 ± 1	2.889 ± 0.02	2.365 ± 0.017	1.99 ± 0.015	1.695 ± 0.013	1.462 ± 0.012
m1 = 20	918.792 ± 1	914.849 ± 1	910.842 ± 1	906.77 ± 1	–	2.878 ± 0.02	2.371 ± 0.017	1.999 ± 0.015	1.704 ± 0.013	1.475 ± 0.012
m1 = 22	913.462 ± 1	909.466 ± 1	905.406 ± 1	901.281 ± 1	–	2.862 ± 0.02	2.352 ± 0.017	1.989 ± 0.015	1.7 ± 0.013	1.469 ± 0.012

[2]
Conditions	refractive index
m1 = 14	1.355 ± 0.0007
m1 = 16	1.3564 ± 0.0007
m1 = 18	1.3575 ± 0.0007
m1 = 20	1.3583 ± 0.0007
m1 = 22	1.3585 ± 0.0007

CCCO [propan-1-ol] + O
[1]
Conditions	mass density, 293.15 K [kg/m3]	mass density, 298.15 K [kg/m3]	mass density, 303.15 K [kg/m3]	mass density, 308.15 K [kg/m3]	mass density, 313.15 K [kg/m3]	viscosity, 293.15 K [mPa·s]	viscosity, 298.15 K [mPa·s]	viscosity, 303.15 K [mPa·s]	viscosity, 308.15 K [mPa·s]	viscosity, 313.15 K [mPa·s]
m1 = 14	918.103 ± 1	914.486 ± 1	910.811 ± 1	907.075 ± 1	903.277 ± 1	3.11 ± 0.022	2.599 ± 0.019	2.193 ± 0.016	1.88 ± 0.014	1.626 ± 0.013
m1 = 16	911.211 ± 1	907.532 ± 1	903.797 ± 1	899.995 ± 1	896.13 ± 1	3.151 ± 0.022	2.637 ± 0.019	2.23 ± 0.016	1.906 ± 0.014	1.648 ± 0.013
m1 = 18	905.417 ± 1	901.687 ± 1	897.899 ± 1	894.048 ± 1	890.133 ± 1	3.176 ± 0.023	2.663 ± 0.019	2.255 ± 0.016	1.93 ± 0.015	1.67 ± 0.013
m1 = 20	899.512 ± 1	895.724 ± 1	891.885 ± 1	887.984 ± 1	884.02 ± 1	3.178 ± 0.023	2.671 ± 0.019	2.263 ± 0.017	1.938 ± 0.015	1.679 ± 0.013
m1 = 22	895.376 ± 1	891.557 ± 1	887.682 ± 1	883.751 ± 1	879.756 ± 1	–	–	–	–	–

[2]
Conditions	refractive index
m1 = 14	1.364 ± 0.0007
m1 = 16	1.3654 ± 0.0007
m1 = 18	1.367 ± 0.0007
m1 = 20	1.368 ± 0.0007
m1 = 22	1.3695 ± 0.0007
